PMC9181126, “Design, Synthesis, Molecular Docking Analysis and Biological Evaluations of 4-[(Quinolin-4-yl)amino]benzamide Derivatives as Novel Anti-Influenza Virus Agents” (International Journal of Molecular Sciences, 2022)

Legend:
[1] = test system: PA-PB1 endonuclease; test: Experimental PA-PB1 inhibitory activity of literature inhibitors (training and test set); type: biochemical, influenza virus; conditions: class of the experimental IC50
[2] = test system: PA-PB1 endonuclease; parameters: method as in supplement 1-7; conditions: training and test set compounds collected from literature; ref supplement 1-7; read-out: IC50 value Experimental (PA-PB1 endonuclease inhibitors); cited from earlier work
[3] = in vitro; type: cell-based, canine; conditions: dog
Protocol: (§1) The 3-(4,5-dimethylthiazol-2-yl)-2,5-diphenyltetrazolium bromide (MTT) method was performed to assess the cytotoxicity of target compounds in MDCK cells and HEK293T cells. Firstly, MDCK cells or HEK293T cells were seeded into the 96-well plate. Then, the media containing test compounds replaced the growth media after 48 h. Incubate MDCK cells or HEK293T cells with test compounds for 72 h at 37 °C in a humidified 5% CO2 incubator. Later, MTT solution (5 mg/mL in PBS) was added into each well and plates were incubated for 4 h at 37 °C. Then, add a solubilization solution to lyse cells. Finally, absorbance was read at 620 nm using an ELISA plate reader (Tecan Sunrise) after 3 h of further incubation at 37 °C. We set the values obtained from the wells treated with only DMSO as 100% of viable cells.

[4] = test system: MDCK cells; test: in vitro; type: cell-based, canine; conditions: dog, 72 h
Protocol: as §1

[5] = test system: influenza virus A/WSN/33 (H1N1); test: microbe, parasite or virus in culture; type: cell-based; conditions: MDCK, 72 h; for inhibition at 12.5 µM / inhibition at 25 µM / inhibition at 50 µM / inhibition at 100 µM: H1N1|WSN, read-out: Antiviral activity in CPE assay; for EC50: read-out: Cytopathic Effect Assay (A/WSN/33, H1N1) EC50
[6] = test system: influenza virus A/WSN/33 (H1N1); test: Plaque inhibition assay in MDCK cells; type: cell-based; conditions: MDCK, read-out: Plaque Inhibition Assay (A/WSN/33, H1N1) Inhibition Rate; for inhibition at 25 µM: concentration 25 µM; for inhibition at 100 µM: concentration 100 µM; for inhibition at 12.5 µM: concentration 12.5 µM
[7] = test system: HEK293T cells; test: in vitro; type: cell-based; conditions: human, 72 h
Protocol: as §1

[8] = in vitro; type: cell-based; conditions: human
Protocol: as §1

SMILES | Activity scale Experimental [1] | IC50 [2] | CC50 at 72 h [3] | MDCK cells survival rate ([4]; 12.5 µmol·L−1) | MDCK cells survival rate ([4]; 25 µmol·L−1) | MDCK cells survival rate ([4]; 50 µmol·L−1) | MDCK cells survival rate ([4]; 100 µmol·L−1) | inhibition at 12.5 µM [5] | inhibition at 25 µM [5] | inhibition at 50 µM [5] | inhibition at 100 µM [5] | EC50 [5] | HEK293T cells survival rate ([7]; 3.125 µmol·L−1) | HEK293T cells survival rate ([7]; 6.25 µmol·L−1) | HEK293T cells survival rate ([7]; 12.5 µmol·L−1) | HEK293T cells survival rate ([7]; 25 µmol·L−1) | HEK293T cells survival rate ([7]; 50 µmol·L−1) | HEK293T cells survival rate ([7]; 100 µmol·L−1) | CC50 at 72 h [8] | melting point | further results
COc1ccccc1C(=O)Nc1sc2c(c1C(=O)Nc1ccc(Cl)cc1)CCCCC2 [Compound H34] | +++ (+++, IC50 10 to 100 μM (active)) | 78 µM | – | – | – | – | – | – | – | – | – | – | – | – | – | – | – | – | – | – | –
Cc1cc(-c2ccccc2)n2nc(C(=O)Nc3nc4ccccc4s3)nc2n1 [Compound H09] | +++ (+++, IC50 10 to 100 μM (active)) | 21 µM | – | – | – | – | – | – | – | – | – | – | – | – | – | – | – | – | – | – | –
Cc1ccc(-c2cc(-c3ccccc3)nc(SCC(=O)Nc3cccc(Cl)c3)c2C#N)cc1 [Compound H35] | + (+, IC50 >150 μM (inactive)) | 180 µM | – | – | – | – | – | – | – | – | – | – | – | – | – | – | – | – | – | – | –
Cc1cc(-c2ccccc2)nc2c(C(=O)Nc3sc4c(c3C(N)=O)CCC4)cnn12 [Compound H15] | +++ (+++, IC50 10 to 100 μM (active)) | 44.8 µM | – | – | – | – | – | – | – | – | – | – | – | – | – | – | – | – | – | – | –
CCOc1ccc(C(=O)Nc2nc3n(n2)C(c2ccccc2)C=C(C)N3)cc1 (stereo not drawn) [Compound H23] | ++ (++, IC50 100 to 150 μM (moderately active)) | 139 µM | – | – | – | – | – | – | – | – | – | – | – | – | – | – | – | – | – | – | –
CC(c1ccccc1)n1nnnc1C(c1ccsc1)N1CCC(n2c(=O)[nH]c3ccccc32)CC1 (stereo not drawn) [Compound H28] | ++++ (++++, IC50 ≤ 10 μM (most active)) | 7.6 µM | – | – | – | – | – | – | – | – | – | – | – | – | – | – | – | – | – | – | –
CC1=CC(c2ccccc2)n2nc(NC(=O)c3ccccc3F)nc2N1 (stereo not drawn) [Compound H25] | + (+, IC50 >150 μM (inactive)) | 185 µM | – | – | – | – | – | – | – | – | – | – | – | – | – | – | – | – | – | – | –
Cc1cc(-c2ccccc2)nc2nc(NC(=O)c3ccccc3)nn12 [Compound H20] | +++ (+++, IC50 10 to 100 μM (active)) | 26 µM | – | – | – | – | – | – | – | – | – | – | – | – | – | – | – | – | – | – | –
CC1=CC(c2ccccc2)n2nc(NC(=O)c3ccc(OC(C)C)cc3)nc2N1 (stereo not drawn) [Compound H22] | +++ (+++, IC50 10 to 100 μM (active)) | 75 µM | – | – | – | – | – | – | – | – | – | – | – | – | – | – | – | – | – | – | –
CCCOc1ccc(C(=O)Nc2nc3n(n2)C(c2ccccc2)C=C(C)N3)cc1 (stereo not drawn) [Compound H21] | +++ (+++, IC50 10 to 100 μM (active)) | 40 µM | – | – | – | – | – | – | – | – | – | – | – | – | – | – | – | – | – | – | –
CCOc1ccc(N2CCN(C(=O)c3ccc(Nc4ccnc5cc(C(F)(F)F)ccc45)cc3)CC2)cc1 [Compound G18, [4-(4-Ethoxyphenyl)piperazin-1-yl]{4-{[7-(trifluoromethyl)quinolin-4-yl]amino}phenyl}methanone] | – | – | > 100 µM | 112.99±2.36% | 111.55±2.20% | 138.28±6.89% | 104.99±4.01% | 42.8 ± 0.57% | 39.5 ± 1.72% | 38.7 ± 4.29% | 35.5 ± 9.67% | > 100 µM | 98.42±9.98% | 87.82±9.55% | 70.43±2.98% | 65.43±6.72% | 72.68±1.96% | 86.90±1.67% | > 100 µM | 210 to 212.3 °C | inhibition at 25 µM [6]: 16.3%
O=C(NCc1ccccc1)c1ccc(Nc2ccnc3cc(C(F)(F)F)ccc23)cc1 [Compound G11, N-Benzyl-4-{[7-(trifluoromethyl)quinolin-4-yl]amino}benzamide] | – | – | > 100 µM | 148.07±0.17% | 123.28±5.69% | 127.54±0.33% | 137.86±9.32% | 47.7 ± 9.63% | 52.4 ± 3.44% | 44.1 ± 1.38% | 47.3 ± 0.92% | 7.17 ± 1.53 µM | 129.49±22.76% | 101.78±7.08% | 105.25±12.82% | 108.76±5.63% | 103.77±9.35% | 86.44±8.60% | > 100 µM | 263.4 to 265.8 °C | inhibition at 100 µM [6]: 50%
CCN(CC)CCCNC(=O)c1ccc(Nc2ccnc3cc(C(F)(F)F)ccc23)cc1 [Compound G06, N-[3-(Diethylamino)propyl]-4-{[7-(trifluoromethyl)quinolin-4-yl]amino}benzamide] | – | – | > 100 µM | 95.22±3.96% | 96.67±0.91% | 84.01±5.28% | 79.75±2.72% | 16.7 ± 1.15% | 13.1 ± 0.69% | 12.8 ± 0.69% | 11.2 ± 0.23% | > 100 µM | 107.15±2.76% | 90.35±0.85% | 96.59±4.26% | 85.50±2.49% | 85.25±2.63% | 76.47±9.94% | > 100 µM | 216.5 to 219.3 °C | inhibition at 12.5 µM [6]: < 10%
Cc1ccccc1N1CCN(C(=O)c2ccc(Nc3ccnc4cc(C(F)(F)F)ccc34)cc2)CC1 [Compound G13, [4-(O-tolyl)piperazin-1-yl]{4-{[7-(trifluoromethyl)quinolin-4-yl]amino}phenyl}methanone] | – | – | > 100 µM | 89.39±3.87% | 87.73±16.36% | 92.20±10.16% | 65.91±7.51% | 27 ± 2.2% | 33.1 ± 4.47% | 36.9 ± 4.41% | 34.3 ± 7.15% | > 100 µM | 99.14±6.42% | 96.29±4.65% | 89.92±2.14% | 88.23±4.29% | 80.60±2.01% | 81.89±2.67% | > 100 µM | 194.7 to 195.6 °C | inhibition at 100 µM [6]: < 10%
O=C(NC1CCCCC1)c1ccc(Nc2ccnc3cc(C(F)(F)F)ccc23)cc1 [Compound G09, N-Cyclohexyl-4-{[7-(trifluoromethyl)quinolin-4-yl]amino}benzamide] | – | – | > 100 µM | 156.36±6.13% | 124.74±4.87% | 130.46±12.65% | 133.61±3.89% | 31.9 ± 0.69% | 22.9 ± 3.9% | 21.4 ± 0.92% | 23.2 ± 3.9% | > 100 µM | 106.48±6.90% | 98.20±3.74% | 92.83±3.70% | 96.79±0.62% | 101.55±2.23% | 81.22±3.80% | > 100 µM | 236.5 to 237.3 °C | inhibition at 12.5 µM [6]: 46.9%
O=C(NCCCN1CCOCC1)c1ccc(Nc2ccnc3cc(C(F)(F)F)ccc23)cc1 [Compound G08, N-(3-Morpholinopropyl)-4-{[7-(trifluoromethyl)quinolin-4-yl]amino}benzamide] | – | – | > 100 µM | 95.86±1.24% | 76.43±4.79% | 75.20±0.25% | 78.41±2.97% | 44.3 ± 3.44% | 45.6 ± 9.4% | 31.1 ± 8.71% | 15.4 ± 0.23% | > 100 µM | 100.86±3.39% | 97.00±3.10% | 95.72±3.30% | 95.56±2.29% | 98.07±1.80% | 112.13±1.41% | > 100 µM | 207.3 to 209.1 °C | inhibition at 25 µM [6]: 11.5%
O=C(NC1CCC(O)CC1)c1ccc(Nc2ccnc3cc(C(F)(F)F)ccc23)cc1 (stereo not drawn) [Compound G10, N-(4-Hydroxycyclohexyl)-4-{[7-(trifluoromethyl)quinolin-4-yl]amino}benzamide] | – | – | > 100 µM | 84.64±7.10% | 109.11±15.21% | 127.95±8.15% | 110.17±2.79% | 48.9 ± 2.01% | 58 ± 1.69% | 66.2 ± 2.87% | 63.8 ± 5.18% | 10.4 ± 0.22 µM | 108.01±12.84% | 104.56±4.92% | 98.12±8.96% | 98.50±8.84% | 99.09±8.41% | 109.24±7.99% | > 100 µM | 324 to 325 °C | inhibition at 100 µM [6]: 7.41%
